# From patent publication US5244898A, “Benzoheterocyclic compounds” (Otsuka Pharmaceutical Co., Ltd., priority 1991, dated 1993)
# Where a name gives a salt, the structure may show the parent alone.
# What was measured:
# [1] = molecular target: V1 Receptor (Rattus norvegicus, UniProt P30560); experiment: V1 Receptor Binding Assay ([3H]-Arg-vasopressin, rat liver plasma membrane); conditions: 37° C., 10 minutes, pH 8.0
# Protocol: After incubation, the mixture is filtered three times using the glass filter (GF/F) so as to separate the membrane preparation combining with vasopressin and then washed with the buffer (5 ml). This glass filter is taken out and mixed with liquid scintillation cocktail. The amount of [^3 H]-vasopressin combining with the membrane is measured by liquid scintillation counter and the rate of the inhibitory effect of the test compound is estimated according to the following equation.
# (§1) C1 : The amount of [^3 H]-vasopressin combining with the membrane in the presence of the test compound of a known amount.
# (§2) C0 : The amount of [^3 H]-vasopressin combining with the membrane in the absence of the test compound.
# B1 : The amount of [^3 H]-vasopressin combining with the membrane in the presence of the excess amount of vasopressin (10^-6 M).
# (§3) The results are expressed as IC50 value, which is the concentration of the test compound required to achieve the inhibitory effect in the rate of 50%.
# [2] = molecular target: T1, V2 Receptor (Rattus norvegicus, UniProt Q00788); experiment: V2 Receptor Binding Assay ([3H]-Arg-vasopressin, rat kidney plasma membrane); conditions: 4° C., pH 8.0
# T1 construct: rat kidney plasma membrane preparations; from tissue; host or cells: rat kidney plasma membranes
# T1 sequence (Q00788 whole entry): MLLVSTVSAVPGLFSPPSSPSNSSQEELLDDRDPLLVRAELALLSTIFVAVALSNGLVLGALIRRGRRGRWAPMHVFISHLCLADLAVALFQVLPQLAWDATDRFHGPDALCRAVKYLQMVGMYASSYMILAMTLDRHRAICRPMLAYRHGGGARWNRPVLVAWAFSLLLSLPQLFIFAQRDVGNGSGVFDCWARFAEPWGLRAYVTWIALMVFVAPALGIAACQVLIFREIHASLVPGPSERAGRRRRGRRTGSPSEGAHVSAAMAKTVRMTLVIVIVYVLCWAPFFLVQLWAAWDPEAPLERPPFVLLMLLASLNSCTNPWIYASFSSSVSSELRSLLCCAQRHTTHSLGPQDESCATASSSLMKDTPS
# Protocol: Chem., 253, 3211 (1978)], the plasma membrane (100000 dpm, 4×10^-10M) of [^3 H]-Arg-vasopressin and a test compound (0.6 mg, 10^-10 -10^-5 M) are incubated at 4° C. for 3 hours in 100 mM Tris-HCl buffer pH: 8.0 (250 μl ) containing 5 mM MgCl2, 1 mM EDTA and 0.1 % BSA. After incubation, the mixture is filtered using the glass filter (GF/F) so as to separate the membrane preparation combining with vasopressin and then washed twice with the buffer (5 ml). This glass filter is taken out and mixed with liquid scintillation cocktail. The amount of [^3 H]-vasopressin combining with the membrane is measured by liquid scintillation counter and the rate of the inhibitory effect of the test compound is estimated according to the following equation. [formula]
# as §1, §2
# B1 : The amount of [3H-vasopressin combining with the membrane in the presence of the excess amount of vasopressin (10^-6 M).
# as §3
# Chain of V1 Receptor (P30560 whole entry): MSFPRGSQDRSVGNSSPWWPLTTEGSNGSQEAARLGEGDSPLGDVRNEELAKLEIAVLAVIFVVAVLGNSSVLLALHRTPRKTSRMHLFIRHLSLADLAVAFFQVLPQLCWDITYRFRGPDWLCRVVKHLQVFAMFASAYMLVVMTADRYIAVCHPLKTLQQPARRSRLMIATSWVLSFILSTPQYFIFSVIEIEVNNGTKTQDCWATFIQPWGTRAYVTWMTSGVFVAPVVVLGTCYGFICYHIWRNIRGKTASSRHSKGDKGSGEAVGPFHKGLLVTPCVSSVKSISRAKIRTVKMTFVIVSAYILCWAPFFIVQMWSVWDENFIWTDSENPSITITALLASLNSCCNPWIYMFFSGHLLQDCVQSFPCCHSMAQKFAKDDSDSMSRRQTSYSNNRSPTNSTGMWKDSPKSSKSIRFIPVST
IC50 [1] [nM],IC50 [2] [nM],Structure (SMILES)
18,3,"COc1cc(NC(=O)c2ccccc2Br)ccc1C(=O)N1CCCC(CC(=O)N(C)C)c2cc(F)ccc21 (stereo not drawn) [Test Compound 51, 5-Dimethylaminocarbonylmethyl-7-fluoro-1-[2-methoxy-4-(2-bromobenzoylamino)benzoyl]-2,3,4,5-tetrahydro-1H-benzazepine]"
21,4,"Cc1ccccc1C(=O)Nc1ccc(C(=O)N2CCCC(COC(=O)CN(C)C)c3cc(Cl)ccc32)cc1 (stereo not drawn) [Test Compound 25, 5-[2-(Dimethylaminoacetyloxy)methyl]-7-chloro-1-[4-(2-methylbenzoylamino)benzoyl]-2,3,4,5-tetrahydro-1H-benzazepine hydrochloride]"
37,12,"COc1cc(NC(=O)c2ccccc2Cl)ccc1C(=O)N1CCCC(CC(=O)NC2CCN(Cc3ccccc3)CC2)c2cc(Cl)ccc21 (stereo not drawn) [Test Compound 48, 5-[(1-Benzyl-4-piperidinyl)aminocarbonylmethyl]-7-chloro-1-[2-methoxy-4-(2-chlorobenzoylamino)benzoyl]-2,3,4,5-tetrahydro-1H-benzazepine hydrochloride]"
16,6,"COc1cc(NC(=O)c2ccccc2C)ccc1C(=O)N1CCCC(CC(=O)N2CCNCC2)c2cc(Cl)ccc21 (stereo not drawn) [Test Compound 52, 5-[(1-Piperazinyl)carbonylmethyl]-7-chloro-1-[2-methoxy-4-(2-methylbenzoylamino)benzoyl]-2,3,4,5-tetrahydro-1H-benzazepine hydrochloride]"
73,7,"COc1cc(NC(=O)c2ccccc2C)ccc1C(=O)N1CCCC(OCCN2CCN(C(C)=O)CC2)c2cc(Cl)ccc21 (stereo not drawn) [Test Compound 40, 5-[2-(4-Acetyl-1-piperazinyl)ethoxy]-7-chloro-1-[2-methoxy-4-(2-methylbenzoylamino)benzoyl]-2,3,4,5-tetrahydro-1H-benzazepine hydrochloride]"
160,150,"Cc1ccccc1C(=O)Nc1ccc(C(=O)N2CCCC(C#N)c3cc(Cl)ccc32)cc1Cl (stereo not drawn) [Test Compound 38, 5-Cyano-7-chloro-1-[3-chloro-4-(2-methylbenzoylamino)benzoyl]-2,3,4,5-tetrahydro-1H-benzazepine]"
11,4,"COc1cc(C(=O)N2CCCC(CC(=O)N(C)C)c3cc(Cl)ccc32)ccc1NC(=O)c1ccccc1C (stereo not drawn) [Test Compound 32, 5-Dimethylaminocarbonylmethyl-7-chloro-1-[3-methoxy-4-(2-methylbenzoylamino)benzoyl]-2,3,4,5-tetrahydro-1H-benzazepine]"
220,11,"CSCC[C@H](N)C(=O)OC1CCCN(C(=O)c2ccc(NC(=O)c3ccccc3C)cc2C)c2ccc(Cl)cc21 (single isomer, unassigned) [Test Compound 14, 5-(L-Methionyloxy)-7-chloro-1-[2-methyl-4-(2-methylbenzoylamino)benzoyl]-2,3,4,5-tetrahydro-1H-benzazepine hydrochloride]"
70,6,"COc1cc(NC(=O)c2ccccc2C)ccc1C(=O)N1CCCC(OCCN2CCNCC2)c2cc(Cl)ccc21 (stereo not drawn) [Test Compound 43, 5-[2-(1-Piperazinyl)ethoxy]-7-chloro-1-[2-methoxy-4-(2-methylbenzoylamino)benzoyl]-2,3,4,5-tetrahydro-1H-benzazepine dihydrochloride]"
54,4,"COc1cc(NC(=O)c2ccccc2C)ccc1C(=O)N1CCCC(CCN2CCC(N(C)C)CC2)c2cc(Cl)ccc21 (stereo not drawn) [Test Compound 54, 5-[2-(4-Dimethylamino-1-piperidinyl)ethyl]-7-chloro-1-[2-methoxy-4-(2-methylbenzoylamino)benzoyl]-2,3,4,5-tetrahydro-1H-benzazepine dihydrochloride]"
84,2,"Cc1ccccc1C(=O)Nc1ccc(C(=O)N2CCCC(=CCCN(C)C)c3cc(F)ccc32)c(Cl)c1 [Test Compound 33, 5-(3-Dimethylaminopropylidene)-7-fluoro-1-[2-chloro-4-(2-methylbenzoylamino)benzoyl]-2,3,4,5-tetrahydro-1H-benzazepine hydrochloride]"
95,16,"COc1cc(NC(=O)c2ccccc2C)ccc1C(=O)N1CCCC(CC(=O)N2CCCCC2)c2cc(F)ccc21 (stereo not drawn) [Test Compound 58, 5-[(1-piperidinyl)carbonylmethyl]-7-fluoro-1-[2-methoxy-4-(2-methylbenzoylamino)benzoyl]-2,3,4,5-tetrahydro-1H-benzazepine]"
20,6,"COc1cc(NC(=O)c2ccccc2C)ccc1C(=O)N1CCCC(OC(=O)[C@@H](N)CCSC)c2cc(Cl)ccc21 (single isomer, unassigned) [Test Compound 13, 5-(L-Methionyloxy)-7-chloro-1-[2-methoxy-4-(2-methylbenzoylamino)benzoyl]-2,3,4,5-tetrahydro-1H-benzazepine hydrochloride]"
30,2,"CCOc1cc(NC(=O)c2ccccc2Cl)ccc1C(=O)N1CCCC(CC(N)=O)c2cc(Cl)ccc21 (stereo not drawn) [Test Compound 28, 5-Carbamoylmethyl-7-chloro-1-[2-ethoxy-4-(2-chlorobenzoylamino)benzoyl]-2,3,4,5-tetrahydro-1H-benzazepine]"
40,6,"COc1cc(NC(=O)c2ccccc2C)ccc1C(=O)N1CCCC(OC(=O)[C@@H](N)CCCCN)c2cc(Cl)ccc21 (stereo partly drawn) [Test Compound 29, 5-(L-Lysyloxy)-7-chloro-1-[2-methoxy-4-(2-methylbenzoylamino)benzoyl]-2,3,4,5-tetrahydro-1H-benzazepine dihydrochloride]"
210,5.4,"COc1cc(NC(=O)c2ccccc2C)ccc1C(=O)N1CCCC(OCCCOS(=O)(=O)c2ccc(C)cc2)c2cc(Cl)ccc21 (stereo not drawn) [Test Compound 37, 5-[3-(p-Toluenesulfonyloxy)propoxy]-7-chloro-1-[2-methoxy-4-(2-methylbenzoylamino)benzoyl]-2,3,4,5-tetrahydro-1H-benzazepine]"
18,7,"COCC(=O)OC1CCCN(C(=O)c2ccc(NC(=O)c3ccccc3C)cc2)c2ccc(Cl)cc21 (stereo not drawn) [Test Compound 24, 5-(2-Methoxyacetyloxy)-7-chloro-1-[4-(2-methylbenzoylamino)benzoyl]-2,3,4,5-tetrahydro-1H-benzazepine]"
31,9,"COc1cc(C(=O)N2CCCC(CC(=O)NC3CCNCC3)c3cc(Cl)ccc32)ccc1NC(=O)c1ccccc1C (stereo not drawn) [Test Compound 30, 5-[(4-Piperidinyl)aminocarbonylmethyl]-7-chloro-1-[3-methoxy-4-(2-methylbenzoylamino)benzoyl]-2,3,4,5-tetrahydro-1H-benzazepine hydrochloride]"
24,6,"COc1cc(NC(=O)c2ccccc2Cl)ccc1C(=O)N1CCCC(CC(=O)N2CCN(C)CC2)c2cc(Cl)ccc21 (stereo not drawn) [Test Compound 44, 5-[(4-Methyl-1-piperazinyl)carbonylmethyl]-7-chloro-1-[2-methoxy-4-(2-chlorobenzoylamino)benzoyl]-2,3,4,5-tetrahydro-1H-benzazepine hydrochloride]"
160,6,"CNC(=O)CC1CCCN(C(=O)c2ccc(NC(=O)c3ccccc3C)cc2OC)c2ccc(F)cc21 (stereo not drawn) [Test Compound 42, 5-Methylaminocarbonylmethyl-7-fluoro-1-[2-methoxy-4-(2-methylbenzoylamino)benzoyl]-2,3,4,5-tetrahydro-1H-benzazepine]"
30,10,"COc1cc(NC(=O)c2ccccc2C)ccc1C(=O)N1CCCC(CC(=O)N2CCN(C)CC2)c2cc(Cl)ccc21 (stereo not drawn) [Test Compound 63, 5-[(4-Methyl-1-piperazinyl)carbonylmethyl]-7-chloro-1-[2-methoxy-4-(2-methylbenozylamino)benzoyl]-2,3,4,5-tetrahydro-1H-benzazepine]"
120,24,"CN(C)C1CCCN(C(=O)c2ccc(NC(=O)Cc3c(Cl)cccc3Cl)cc2)c2ccccc21 (stereo not drawn) [Test Compound 6, 5-Dimethylamino-1-{4-[2-(2,6-dichlorophenyl)acetylamino]benzoyl}-2,3,4,5-tetrahydro-1H-benzazepine]"
45,10,"COc1cc(NC(=O)c2ccccc2Br)ccc1C(=O)N1CCCC(CC(=O)N2CCC(NC(C)=O)CC2)c2cc(F)ccc21 (stereo not drawn) [Test Compound 60, 5-[(4-Acetylamino-1-piperidinyl)carbonylmethyl]-7-fluoro-1-[2-methoxy-4-(2-bromobenzoylamino)benzoyl]-2,3,4,5-tetrahydro-1H-benzazepine]"
62,12,"COc1cc(NC(=O)c2ccccc2C)ccc1C(=O)N1CCCC(CCN2CCN(C)CC2)c2cc(Cl)ccc21 (stereo not drawn) [Test Compound 55, 5-[2-(4-Methyl-1-piperazinyl)ethyl]-7-chloro-1-[2-methoxy-4-(2-methylbenzoylamino)benzoyl]-2,3,4,5-tetrahydro-1H-benzazepine dihydrochloride]"
44,14,"COc1cc(C(=O)N2CCCC(CC#N)c3cc(Cl)ccc32)ccc1NC(=O)c1ccccc1C (stereo not drawn) [Test Compound 39, 5-Cyanomethyl-7-chloro-1-[3-methoxy-4-(2-methylbenzoylamino)benzoyl]-2,3,4,5-tetrahydro-1H-benzazepine]"
8,4,"COc1cc(NC(=O)c2ccccc2Cl)ccc1C(=O)N1CCCC(CC(=O)N2CCC(N(C)C)CC2)c2cc(Cl)ccc21 (stereo not drawn) [Test Compound 45, 5-[(4-Dimethylamino-1-piperidinyl)carbonylmethyl]-7-chloro-1-[2-methoxy-4-(2-chlorobenzoylamino)benzoyl]-2,3,4,5-tetrahydro-1H-benzazepine hydrochloride]"
330,8,"COc1cc(NC(=O)c2ccccc2C)ccc1C(=O)N1CCCC(OCCN2CCN(C)CC2)c2cc(F)ccc21 (stereo not drawn) [Test Compound 47, 5-[2-(4-Methyl-1-piperazinyl)ethoxy]-7-fluoro-1-[2-methoxy-4-(2-methylbenzoylamino)benzoyl]-2,3,4,5-tetrahydro-1H-benzazepine]"
